Test results from patent US8030047B2, “Active truncated form of the RNA polymerase of flavivirus” (priority 2003, dated 2011).

Tests used:
[1] = molecular target: T1, NS5PolWNV (West Nile virus, UniProt Q9Q6P4, K2808N/V2900A); assay: RNA polymerase activity of NS5PolWNV on homopolymeric template poly(rC), [3H]-GTP incorporation; type: biochemical, West Nile virus (strain New York 99); conditions: poly(rC) without primer; GTP 100 mM (so in the source); [3H]-GTP incorporation after 15 min
T1 construct: His-tag; made in house
T1 sequence (Q9Q6P4 2802-3433 K2808N/V2900A): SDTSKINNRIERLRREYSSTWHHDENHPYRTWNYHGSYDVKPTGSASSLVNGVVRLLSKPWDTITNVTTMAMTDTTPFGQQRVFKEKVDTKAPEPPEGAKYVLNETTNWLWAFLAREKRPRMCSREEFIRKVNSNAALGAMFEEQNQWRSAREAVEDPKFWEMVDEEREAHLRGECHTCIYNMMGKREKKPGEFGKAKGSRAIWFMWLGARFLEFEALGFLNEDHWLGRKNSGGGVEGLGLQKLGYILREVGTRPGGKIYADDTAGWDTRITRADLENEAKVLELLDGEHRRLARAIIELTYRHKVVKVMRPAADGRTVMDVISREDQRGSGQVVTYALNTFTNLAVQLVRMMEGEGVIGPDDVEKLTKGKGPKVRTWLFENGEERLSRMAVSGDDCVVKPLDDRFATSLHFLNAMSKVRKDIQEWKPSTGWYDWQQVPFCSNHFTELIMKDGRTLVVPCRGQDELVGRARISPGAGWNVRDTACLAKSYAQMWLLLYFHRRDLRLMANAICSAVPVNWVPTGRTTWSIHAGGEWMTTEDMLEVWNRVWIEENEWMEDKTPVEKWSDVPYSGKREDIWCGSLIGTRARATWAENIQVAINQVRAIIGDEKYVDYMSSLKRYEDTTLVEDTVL

[2] = molecular target: T2, NS5PolDV (Dengue virus type 2, UniProt P14340); assay: RNA polymerase activity of NS5PolDV on homopolymeric template poly(rC), [3H]-GTP incorporation; type: biochemical, Dengue virus (subtype 2, Strain New Guinea C); conditions: for IC50: poly(rC) without primer, GTP 10 mM (so in the source), NS5PolDV 60 nM, [3H]-GTP incorporation after 15 min
T2 construct: The junction (or where the Pol domain starts) is located at amino acid 272; His-tag; made in house; host or cells: E. coli BL21[pDNAy], plasmid pQE30
Procedure: (§1) Activity was tested on three homopolymeric templates: poly(rC), poly(rU) and poly(rA). Only poly(rC) resulted to be a productive template for NS5PolDV. This was illustrated in FIG. 4 based on the following protocol: RNA polymerase activity was tested on a homopolymeric RNA template (polycytidylic acid, Amersham Biosciences) of an average length of 360 nt. A standard assay was carried out in 50 mM HEPES buffer, pH 8.0, 10 mM KCl, 5 mM MgCl2, 5 mM MnCl2, 10 mM DTT containing 1 μM template, […] primer GG, 10 μM GTP, 0.01 mCi [3H]-GTP per μl reaction mixture and the concentration of enzyme given below. Reactions were carried out at 30° C. for given time periods and stopped by spotting a sample on DEAE filter discs (Whatman) presoaked with 50 mM EDTA. Filters were washed 3×10 min with 300 mM (NH4)2SO4 buffer, pH 8.0 and 2×5 min with EtOH and air-dried. Liquid scintillation fluid was added and incorporation in counts per minute (cpm) determined by using a Wallac MicroBeta TriLux Liquid Scintillation Counter.
A: Influence of specific E. coli RNA polymerase inhibitor rifampicin on NS5PolDV and E. coli polymerase (control). NS5PolDV was tested using the conditions given above at 64-nM enzyme concentration. E. coli RNA polymerase was obtained from USBiochemicals and used in NS5PolDV standard reaction buffer at 37 nM.
In FIG. 5, the steady-state Km determination of GTP with various ligands was performed as follows: RNA polymerase activity was tested under conditions given in the description set forth above in the experiments related to FIG. 4 without the use of a primer. Initial velocities were determined over a time period of 5 min. GTP concentrations in the range of 2 to 500 μM were tested using poly(rC) at 1 μM. Template poly(rC) was tested in the range of 2 to 1000 nM with GTP fixed at 200 μM.
Initial velocities were determined on poly(rC) at 10 mM GTP and compared to corresponding values without inhibitor. […] Since these inhibition results are not identical, questions related to the putative interference of the capping domain remain when using the full-length polymerase.

[3] = molecular target: T3, full-length NS5DV (Dengue virus type 2, UniProt P14340); assay: RNA polymerase activity of full-length NS5DV on poly(rC); type: biochemical, Dengue virus (subtype 2, Strain New Guinea C); conditions: inhibitor 10 mM, 10 mM GTP, read-out: Initial velocity compared to the protein without inhibitor
T3 construct: His-tag; made in house; host or cells: E. coli BL21[pDNAy], plasmid pQE30
Procedure: as §1, with “Filters were washed 3×10 min with 300 mM (NH4)2SO4 buffer, pH 8.0 and 2×5 min with EtOH and air-dried.” left out
In FIG. 5, the steady-state Km determination of GTP with various ligands was performed as follows: RNA polymerase activity was tested under conditions given in the description set forth above in the experiments related to FIG. 4 without the use of a primer. Initial velocities were determined over a time period of 5 min. […]
Initial velocities were determined on poly(rC) at 10 mM GTP and compared to corresponding values without inhibitor. […]

Row | Compound | IC50 [1] [µM] | IC50 [2] [µM] | activity at 10000 µM [3] [%] | activity at 10000 µM ([2]; read-out: Initial velocity compared to the protein without inhibitor) [%]
1 | 3′-dioxolane 3′-deoxy GTP | 58 | 1.2 |  | 
2 | Nc1nc2c(ncn2[C@H]2CC[C@@H](COP(=O)(O)OP(=O)(O)OP(=O)(O)O)O2)c(=O)[nH]1 [2′,3′-dideoxy GTP] |  | 0.8 |  | 
3 | CO[C@@H]1[C@H](O)[C@@H](COP(=O)(O)OP(=O)(O)OP(=O)(O)O)O[C@H]1n1cnc2c(=O)[nH]c(N)nc21 [2′-O-methyl-GTP] |  | 5.6 | 19.3 | 29.3
4 | Nc1nc2c(ncn2[C@@H]2O[C@H](COP(=O)(O)OP(=O)(O)OP(=O)(O)O)C[C@H]2O)c(=O)[nH]1 [3′-deoxy GTP] |  | 0.02 |  | 
